Data as given in paper PMC9311865, “Covalent Allosteric Inhibitors of Akt Generated Using a Click Fragment Approach” (Chemmedchem, 2022).

Key:
[1] = target: T1, Akt1 (Homo sapiens, UniProt P31749); assay: HTRF KinEASE assay, IC50 against Akt1; settings: for IC50: mean ± SD, n=3
Source text: (§1) The homogeneous time‐resolved fluorescence (HTRF®) KinEASE™ assay by Cisbio was used to determine the half‐maximal inhibitory concentration (IC50) values of the synthesised compounds against Akt1, Akt2 and Akt3 (Table 1).[26]
(§2) The HTRF® KinEASE™ assay (Cisbio) was used to determine the IC 50 values of the synthesised
(§3) al. (Akt2 and Akt3).1,5 The three wild-type Akt isoforms used were acquired from ProQinase.

[2] = test system: KU-19-19 cells; assay: CellTiter-Glo Luminescent Cell Viability Assay, KU-19-19; type: cell-based; settings: Homo sapiens, bladder cancer cell line, Akt1 E17K/E49K, mean ± SD, n=3
Procedure: The potential in vitro antiproliferative activity of the synthesised target compounds was investigated against a number of cancer cell lines by the CellTiter‐Glo® Luminescent Cell Viability Assay (from Promega Corporation, USA, catalogue number: G7570). The half‐maximal effective concentrations (EC50) of these compounds were determined against the AN3‐CA, BT‐474, KU‐19‐19, MCF‐7, T‐47D and ZR‐75‐1 cell lines originating from various tissues, i. e., breast, endometrium and bladder (Table S1). […]
The CellTiter-Glo® Luminescent Cell Viability Assay from Promega was used for the cellular assays, performed as explained by Weisner et al.7,8 Information on the cancer cell lines are given in Table S1, the control compounds used in Figure S3 and the results in Table S2.
Table S1. The cell lines used for the cellular assays, including what cancer type they are predominantly found in, and where the cell lines were acquired form.
Cell line Cancer type Acquired from AN3CA Endometrium ATCC (provided by Prof. Jan G. Hengstler at Leibniz-Institut für Arbeitsforschung Dortmund)
KU-19-19 Bladder Deutsche Sammlung von Mikroorganismen und Zellkulturen […]
BT-474 CLS Cell Lines Service (provided by Prof. Jan G. Hengstler at […] Leibniz-Institut für Arbeitsforschung Dortmund)

[3] = test system: T47D cells; assay: CellTiter-Glo Luminescent Cell Viability Assay, T47D; type: cell-based; settings: Homo sapiens, breast cancer cell line, mean ± SD, n=3
[4] = target: T2, wild-type Akt1 (Homo sapiens, UniProt P31749); assay: LC-MS identification of covalent binders after co-incubation with Akt1; type: binding; settings: co-incubation with Akt1, Figure S1
T2 construct: made in house
T2 sequence (P31749 whole entry): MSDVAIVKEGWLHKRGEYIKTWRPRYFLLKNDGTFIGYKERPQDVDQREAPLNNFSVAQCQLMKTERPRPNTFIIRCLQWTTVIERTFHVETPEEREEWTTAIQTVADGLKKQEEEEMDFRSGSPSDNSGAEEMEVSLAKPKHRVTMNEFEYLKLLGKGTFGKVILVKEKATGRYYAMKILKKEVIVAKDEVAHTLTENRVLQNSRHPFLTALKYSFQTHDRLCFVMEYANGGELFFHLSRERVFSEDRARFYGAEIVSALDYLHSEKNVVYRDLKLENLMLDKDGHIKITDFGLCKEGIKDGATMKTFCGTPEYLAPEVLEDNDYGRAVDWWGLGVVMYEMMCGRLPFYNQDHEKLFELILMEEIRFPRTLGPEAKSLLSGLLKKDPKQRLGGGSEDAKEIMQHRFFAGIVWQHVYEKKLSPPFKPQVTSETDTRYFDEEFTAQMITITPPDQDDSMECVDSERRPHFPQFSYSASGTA
Source text: 2. Evaluation results … 4
4. Molecular Modelling … 57
indicated covalent binding.

[5] = test system: BT-474 cells; assay: CellTiter-Glo Luminescent Cell Viability Assay, BT-474; type: cell-based; settings: Homo sapiens, BT-474; breast cancer cell line; mean ± SD, n=3; read-out: EC50 BT‐474
[6] = test system: AN3CA cells; assay: CellTiter-Glo Luminescent Cell Viability Assay, AN3CA; type: cell-based; settings: Homo sapiens, AN3-CA; endometrium cancer cell line; mean ± SD, n=3; read-out: EC50 AN3CA
[7] = test system: ZR-75-1 cells; assay: CellTiter-Glo Luminescent Cell Viability Assay, ZR-75-1; type: cell-based; settings: Homo sapiens, ZR-75-1; breast cancer cell line; mean ± SD, n=3; read-out: EC50 ZR‐75‐1
[8] = target: Akt3 (Homo sapiens, UniProt Q9Y243); assay: HTRF KinEASE assay, IC50 against Akt3
Chain of Akt3 (Q9Y243 whole entry): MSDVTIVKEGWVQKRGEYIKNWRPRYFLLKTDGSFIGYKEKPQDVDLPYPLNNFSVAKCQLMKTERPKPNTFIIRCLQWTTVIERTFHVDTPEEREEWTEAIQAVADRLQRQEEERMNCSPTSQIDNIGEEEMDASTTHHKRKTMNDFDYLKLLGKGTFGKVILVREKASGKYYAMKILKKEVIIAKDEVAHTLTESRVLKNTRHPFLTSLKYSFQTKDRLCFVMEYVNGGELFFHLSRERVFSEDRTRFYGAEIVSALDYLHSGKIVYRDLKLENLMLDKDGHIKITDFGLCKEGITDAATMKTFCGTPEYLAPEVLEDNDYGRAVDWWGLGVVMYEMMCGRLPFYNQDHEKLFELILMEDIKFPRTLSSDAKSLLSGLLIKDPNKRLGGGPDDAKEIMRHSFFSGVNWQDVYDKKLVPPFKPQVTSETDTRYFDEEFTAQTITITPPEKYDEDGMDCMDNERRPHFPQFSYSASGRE
Source text: as §1, §2, §3

[9] = target: T3, Akt2 (Homo sapiens, UniProt P31751); assay: HTRF KinEASE assay, IC50 against Akt2; type: biochemical; settings: wild-type Akt2; mean ± SD, n=3
T3 construct: purchased ProQinase
T3 sequence (P31751 whole entry): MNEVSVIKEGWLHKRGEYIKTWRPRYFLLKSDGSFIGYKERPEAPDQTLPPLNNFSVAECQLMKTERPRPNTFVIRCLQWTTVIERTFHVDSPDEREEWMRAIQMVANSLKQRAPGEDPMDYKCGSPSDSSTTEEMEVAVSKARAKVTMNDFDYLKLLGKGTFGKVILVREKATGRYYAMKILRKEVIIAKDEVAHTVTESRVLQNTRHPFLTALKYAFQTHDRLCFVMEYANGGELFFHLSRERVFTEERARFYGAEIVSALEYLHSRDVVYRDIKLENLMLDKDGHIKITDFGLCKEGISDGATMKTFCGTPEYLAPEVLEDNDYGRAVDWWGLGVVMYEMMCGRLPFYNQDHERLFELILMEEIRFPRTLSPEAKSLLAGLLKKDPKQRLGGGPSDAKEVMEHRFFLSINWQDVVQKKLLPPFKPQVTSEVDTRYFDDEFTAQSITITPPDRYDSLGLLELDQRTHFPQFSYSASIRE
Source text: as §1, §2, §3

[10] = target: T1, Akt1; assay: Kinetic analysis with HTRF KinEASE (time-dependent IC50), kinetic parameters of inactivation; type: biochemical; set-up: purchased ProQinase; settings: mean ± SD, n=3; for Ki: inhibition constant of inactivation
Source text: The kinetic parameters of inactivation, namely the inhibition constant (K I) and the rate constant of enzyme inactivation (k inact), are therefore preferentially used to describe irreversible inhibitors.[28] K I is defined as the concentration of inhibitor required for half of the maximum potential rate of covalent bond formation, while k inact is defined as the maximum potential rate of covalent bond formation.[29] The ratio of k inact over K I, k inact/K I, accounts for both the potency of the inhibitor (K I) and the maximum potential rate of covalent bond formation (k inact) and thus represents the second‐order rate constant describing the efficiency of covalent complex formation.[29] Using a protocol published by Krippendorff et al., K I and k inact can be directly estimated from time‐dependent IC50 determinations by kinetic analysis with HTRF® KinEASE™.[28]
Using a protocol published by Krippendorff et al., KI, kinact and kinact/KI could be directly
estimated from time-dependent IC50 determinations by kinetic analysis with HTRF® KinEASE™,

[11] = test system: MCF-7 cells; assay: CellTiter-Glo Luminescent Cell Viability Assay, MCF-7; type: cell-based; settings: Homo sapiens, MCF7; breast cancer cell line; mean ± SD, n=3; read-out: EC50 MCF‐7
[12] = target: T2, wild-type Akt1; set-up: method as in earlier work; settings: ref 6a; cited from earlier work
[13] = IC50, Akt1, repeated in Table 2 for comparison

T1 sequence (P31749 whole entry): as the sequence (P31749 whole entry) above

Row | Compound | IC50 ([1]; IC50 Akt1, wild-type Akt1) [µM] | EC50 [3] [µM] | covalent binding to Akt1 (mass increase by LC-MS) [4] | EC50 [5] [µM] | IC50 [8] [µM] | IC50 [9] [µM] | EC50 [11] [µM] | IC50 ([1]; Akt1, repeated in Table 2 for comparison) [µM] | decrease in activity against Akt1 compared to control compound 2 ([1]; IC50 ratio to borussertib (2)) | IC50 [1, 13] [µM] | EC50 [2] [µM] | EC50 [6] [µM] | EC50 [7] [µM] | melting point [°C] | Ki [10] [µM] | k inact [10] [min⁻¹] | k inact/K I [10] [M⁻¹ s⁻¹] | covalent binding to Akt1, previously identified [12]
1 | C=CC(=O)Nc1ccc2[nH]c(=O)n(C3CCN(Cc4ccc(-c5nc6ccccn6c5-c5ccccc5)cc4)CC3)c2c1 [Compound 11, N ‐(2‐Oxo‐3‐{1‐[4‐(3‐phenylimidazo[1,2‐a]pyridin‐2‐yl)benzyl]piperidin‐4‐yl}‐2,3‐dihydro‐1H‐benzo[d]imidazol‐5‐yl)acrylamide] | 0.034 ± 0.02 | 0.364 ± 0.087 | covalent binders | 0.971 ± 0.301 | > 20 | 2.56 ± 0.578 | 1.1 ± 0.689 |  |  | 0.0341 ± 0.0204 | 12.8 ± 1.61 | 1.03 ± 0.21 | 0.081 ± 0.011 | 221 to 223 | 0.0272 ± 0.0026 | 0.069 ± 0.004 | 43000 ± 6000 | 
2 | C=CC(=O)Nc1cccc(-c2cn(C3CCN(Cc4ccc(-c5nc6ccccn6c5-c5ccccc5)cc4)CC3)nn2)c1 [Compound 3, N ‐[3‐(1‐{1‐[4‐(3‐Phenylimidazo[1,2‐a]pyridin‐2‐yl)benzyl]piperidin‐4‐yl}‐1H‐1,2,3‐triazol‐4‐yl)phenyl]acrylamide] |  | 4.07 ± 1.61 | quantitative protein labelling | 8.27 ± 0.862 | > 20 | > 20 | 4.29 ± 1.13 | 0.372 ± 0.0485 |  |  | 12.4 ± 2.88 | 4.75 ± 1.54 | 2.17 ± 0.517 |  | 0.497 ± 0.107 | 0.071 ± 0.006 | 2000 ± 1000 | covalent binder
3 | C=CC(=O)Nc1cc2c(cc1Cl)[nH]c(=O)n2C1CCN(Cc2ccc(-c3nc4ccccn4c3-c3ccccc3)cc2)CC1 [Compound 12, N ‐(6‐Chloro‐2‐oxo‐3‐{1‐[4‐(3‐phenylimidazo[1,2‐a]pyridin‐2‐yl)benzyl]piperidin‐4‐yl}‐2,3‐dihydro‐1H‐benzo[d]imidazol‐5‐yl)acrylamide] | 0.029 ± 0.005 | 1.5 ± 0.903 | covalent binders | 3.76 ± 1.38 | > 20 | 5.59 ± 1.52 | 4.23 ± 2.4 |  |  | 0.0286 ± 0.0053 | 23.5 ± 6.7 | 3.57 ± 1.22 | 0.227 ± 0.057 | 80 to 82 | 0.0247 ± 0.0018 | 0.081 ± 0.008 | 55000 ± 9000 | 

The next lines start with results.

Row | IC50 ([1]; IC50 Akt1, wild-type Akt1) [µM] | EC50 [3] [µM] | covalent binding to Akt1 (mass increase by LC-MS) [4] | EC50 [5] [µM] | IC50 [8] [µM] | IC50 [9] [µM] | EC50 [11] [µM] | IC50 ([1]; Akt1, repeated in Table 2 for comparison) [µM] | decrease in activity against Akt1 compared to control compound 2 ([1]; IC50 ratio to borussertib (2)) | Compound | IC50 [1, 13] [µM] | EC50 [2] [µM] | EC50 [6] [µM] | EC50 [7] [µM] | melting point [°C] | Ki [10] [µM] | k inact [10] [min⁻¹] | k inact/K I [10] [M⁻¹ s⁻¹] | covalent binding to Akt1, previously identified [12]
4 | 2.88 ± 1.73 | 3.79 ± 1.94 | no indication of covalent binding | 6.99 ± 2.37 | > 20 | > 20 | 3.39 ± 0.348 |  |  | C=CC(=O)Nc1ccc(-c2cn(C3CCN(Cc4ccc(-c5nc6ccccn6c5-c5ccccc5)cc4)CC3)nn2)cc1 [Compound 5, N ‐[4‐(1‐{1‐[4‐(3‐Phenylimidazo[1,2‐a]pyridin‐2‐yl)benzyl]piperidin‐4‐yl}‐1H‐1,2,3‐triazol‐4‐yl)phenyl]acrylamide] |  | 9.83 ± 1.6 | 5.44 ± 1.56 | 3.54 ± 0.44 |  |  |  |  | 
5 | 0.007 ± 0.0018 | 0.088 ± 0.031 | covalent binders | 0.469 ± 0.162 |  |  | 0.329 ± 0.225 |  | less than 10 fold | C=CC(=O)Nc1cccc(-c2cn(C3CCN(Cc4ccc(-c5nc6cc[nH]c(=O)c6cc5-c5ccccc5)cc4)CC3)nn2)c1 [Compound 13, N ‐[3‐(1‐{1‐[4‐(5‐Oxo‐3‐phenyl‐5,6‐dihydro‐1,6‐naphthyridin‐2‐yl)benzyl]piperidin‐4‐yl}‐1H‐1,2,3‐triazol‐4‐yl)phenyl]acrylamide] | 0.007 ± 0.0018 | 5.65 ± 1.49 | 0.425 ± 0.058 | 0.02 ± 0.007 | 252 to 254 | 0.0105 ± 0.0008 | 0.042 ± 0.012 | 66000 ± 15000 | 
6 | 4.63 ± 0.244 | 9.18 ± 4.72 | partial covalent binders | 22.8 ± 3 | > 20 | > 20 | 6.73 ± 3.48 |  |  | C=CC(=O)Nc1cccc(-c2cn(C3CCN(Cc4ccc(-c5nc6ccc(C)cn6c5-c5ccccc5)cc4)CC3)nn2)c1 [Compound 10, N ‐[3‐(1‐{1‐[4‐(6‐Methyl‐3‐phenylimidazo[1,2‐a]pyridin‐2‐yl)benzyl]piperidin‐4‐yl}‐1H‐1,2,3‐triazol‐4‐yl)phenyl]acrylamide] |  | 17.3 ± 7.97 | 5.61 ± 2.85 | 3.32 ± 3.11 | 217 to 219 |  |  |  | 
